According to patent publication US20260132127A1, “NOVEL SPIRO COMPOUND” (MITSUBISHI TANABE PHARMA CORPORATION, priority 2021, published 2026):

Each compound was assayed against T1, human TRH-DE (Homo sapiens, UniProt Q9UKU6) (assay: TRH-DE inhibition test (RapidFire MS measurement of product Cyclo (His-Pro))). Conditions: membrane fraction of Expi 293 cells expressing human TRH-DE; 10 μM TRH substrate; room temperature, 2 hours; 16-point concentration test.
T1 construct: expressed in transfected cells; host or cells: Expi 293 cells (transient expression), membrane fraction
T1 sequence (Q9UKU6 1-1069): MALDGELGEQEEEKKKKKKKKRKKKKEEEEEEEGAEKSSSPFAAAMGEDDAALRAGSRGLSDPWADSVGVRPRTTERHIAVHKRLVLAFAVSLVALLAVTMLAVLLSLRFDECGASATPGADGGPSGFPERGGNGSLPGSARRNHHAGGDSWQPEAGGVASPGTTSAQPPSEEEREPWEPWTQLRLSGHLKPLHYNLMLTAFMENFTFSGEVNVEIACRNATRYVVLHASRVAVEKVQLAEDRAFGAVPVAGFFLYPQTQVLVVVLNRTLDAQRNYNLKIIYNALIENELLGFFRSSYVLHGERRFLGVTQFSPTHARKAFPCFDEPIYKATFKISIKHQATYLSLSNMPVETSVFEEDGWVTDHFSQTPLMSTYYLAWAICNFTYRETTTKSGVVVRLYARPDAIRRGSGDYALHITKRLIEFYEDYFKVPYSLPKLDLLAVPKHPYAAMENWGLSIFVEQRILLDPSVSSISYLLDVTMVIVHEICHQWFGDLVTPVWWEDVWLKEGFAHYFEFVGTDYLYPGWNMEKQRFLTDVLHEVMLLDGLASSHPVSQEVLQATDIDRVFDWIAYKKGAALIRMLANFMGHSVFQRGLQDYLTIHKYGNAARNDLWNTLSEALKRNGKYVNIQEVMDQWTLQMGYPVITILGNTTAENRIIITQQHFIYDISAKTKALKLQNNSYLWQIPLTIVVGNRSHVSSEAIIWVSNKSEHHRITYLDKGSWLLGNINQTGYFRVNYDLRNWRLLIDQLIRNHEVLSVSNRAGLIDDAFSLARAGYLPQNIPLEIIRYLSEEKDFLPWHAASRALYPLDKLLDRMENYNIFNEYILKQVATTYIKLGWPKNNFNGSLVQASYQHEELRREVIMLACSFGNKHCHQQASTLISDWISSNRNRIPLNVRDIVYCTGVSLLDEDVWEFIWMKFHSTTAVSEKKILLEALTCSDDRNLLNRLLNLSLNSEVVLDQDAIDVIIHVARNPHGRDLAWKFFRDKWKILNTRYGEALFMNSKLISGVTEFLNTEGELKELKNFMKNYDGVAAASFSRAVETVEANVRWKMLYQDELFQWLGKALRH
Format: biochemical
How it was run: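 Inhibition derived from product/internal-standard ratios of Cyclo(His-Pro), quantified by RapidFire triple-quadrupole MS after acetonitrile:methanol quench, with IC50 fitted over 16 concentrations. Enzyme source: membranes of Expi 293 cells transiently expressing human TRH-DE, 4 μg/ml, pH 7.4 phosphate buffer. Incubation with 10 μM substrate ran 2 h at room temperature.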

IC50 [nM]	SMILES
5	C[C@@H]1COc2nc(N3C[C@H]4C[C@@H]3CO4)ncc2C(=O)N1C1CC2(C1)CN(S(=O)(=O)c1ccccc1F)C2 [Example 396]
7	C[C@@H]1COc2nc(N3C[C@@H]4C[C@H]3CO4)ncc2C(=O)N1C1CC2(C1)CN(S(=O)(=O)c1ccccc1F)C2 [Example 397]
2	C[C@@H]1COc2nc(N3C[C@H]4C[C@@H](C3)O4)ncc2C(=O)N1C1CC2(C1)CN(S(=O)(=O)c1ccccc1F)C2 [Example 398]
5	C[C@@H]1COc2nc(N3CC(F)C3)ncc2C(=O)N1C1CC2(C1)CN(S(=O)(=O)c1ccccc1F)C2 [Example 399]
2	C[C@@H]1COc2nc(N3CC[C@H](C#N)C3)ncc2C(=O)N1C1CC2(C1)CN(S(=O)(=O)c1ccccc1F)C2 [Example 401]
3	C[C@@H]1COc2nc(N3CC[C@@H](C#N)C3)ncc2C(=O)N1C1CC2(C1)CN(S(=O)(=O)c1ccccc1F)C2 [Example 402]
3	C[C@@H]1COc2nc(N3C[C@H]4C[C@@H]3C4)ncc2C(=O)N1C1CC2(C1)CN(S(=O)(=O)c1ccccc1F)C2 [Example 403]
4	C[C@@H]1COc2nc(N3CC(C(F)(F)F)C3)ncc2C(=O)N1C1CC2(C1)CN(S(=O)(=O)c1ccccc1F)C2 [Example 404]
5	C[C@@H]1COc2nc(N3CC4(COC4)C3)ncc2C(=O)N1C1CC2(C1)CN(S(=O)(=O)c1ccccc1F)C2 [Example 407]
4	C[C@@H]1COc2nc(N3CC4(CCOC4)C3)ncc2C(=O)N1C1CC2(C1)CN(S(=O)(=O)c1ccccc1F)C2 [Example 408]
4	C[C@@H]1COc2nc(NC3CC3)ncc2C(=O)N1C1CC2(C1)CN(S(=O)(=O)c1ccccc1F)C2 [Example 409]
5	CC(C)Nc1ncc2c(n1)OC[C@@H](C)N(C1CC3(C1)CN(S(=O)(=O)c1ccccc1F)C3)C2=O [Example 410]
8	C[C@@H]1COc2nc(N3CC(C#N)C3)ncc2C(=O)N1C1CC2(C1)CN(S(=O)(=O)c1ccccc1F)C2 [Example 411]
16	C[C@@H]1COc2nc(N3C[C@H]4CC[C@@H](C3)O4)ncc2C(=O)N1C1CC2(C1)CN(S(=O)(=O)c1ccccc1F)C2 [Example 412]
183	Cc1ccsc1S(=O)(=O)N1CC2(CC(N3C(=O)c4cccnc4OCC3C)C2)C1 (centres unmarked) [Example 413]
618	CCCN(C(=O)c1cccnc1OC)C1CC2(C1)CN(S(=O)(=O)c1cccc(C)c1)C2 [Example 414, 2-methoxy-N-[2-(3-methylphenyl)sulfonyl-2-azaspiro[3.3]heptan-6-yl]-N-propylpyridine-3-carboxamide]
847	CCCN(C(=O)c1cccnc1OC)C1CC2(C1)CN(S(=O)(=O)c1cccs1)C2 [Example 415]
676	CCCN(C(=O)c1cccnc1OC)C1CC2(C1)CN(S(=O)(=O)c1ccccc1F)C2 [Example 416]
690	CCCN(C(=O)c1cccnc1OC)C1CC2(C1)CN(S(=O)(=O)c1sccc1C)C2 [Example 417]
75	CCCN(C(=O)c1cccnc1OC)C1CC2(C1)CN(S(=O)(=O)c1cc(C)ccc1F)C2 [Example 418]
685	CCCN(C(=O)c1cccnc1OC)C1CC2(C1)CN(S(=O)(=O)c1cccc(-c3ccccc3)c1)C2 [Example 419]
701	CCCN(C(=O)c1cccnc1OC)C1CC2(C1)CN(S(=O)(=O)c1cccc(C)c1F)C2 [Example 420]

IC50 [nM]	SMILES
480	CCCN(C(=O)c1cccnc1OC)C1CC2(C1)CN(S(=O)(=O)c1cc(OC)ccc1F)C2 [Example 421]
218	COCC1C(c2ccccc2)=CC(=O)N1C1CC2(C1)CN(S(=O)(=O)c1ccccc1F)C2 (centres unmarked) [Example 422]
974	CCCN(C(=O)c1cccnc1OC)C1CC2(C1)CN(S(=O)(=O)c1ccccc1)C2 [Example 423, N-[2-(benzenesulfonyl)-2-azaspiro[3.3]heptan-6-yl]-2-methoxy-N-propylpyridine-3-carboxamide]
795	CCCN(C(=O)c1cccnc1OCC)C1CC2(C1)CN(S(=O)(=O)c1cccc(C)c1)C2 [Example 424]
860	CCCN(C(=O)c1ccccc1OC)C1CC2(C1)CN(S(=O)(=O)c1cccc(C)c1)C2 [Example 425]
95	CCCN(C(=O)c1ccnc2[nH]cnc12)C1CC2(C1)CN(S(=O)(=O)c1cc(C)ccc1F)C2 [Example 426]
52	CCCN(C(=O)c1cccnc1N(C)C)C1CC2(C1)CN(S(=O)(=O)c1cc(C)ccc1F)C2 [Example 427]
14	CCCN(C(=O)c1ccnc2[nH]ccc12)C1CC2(C1)CN(S(=O)(=O)c1cc(C)ccc1F)C2 [Example 428]
14	CCCN(C(=O)c1cccnc1NC1CC1)C1CC2(C1)CN(S(=O)(=O)c1cc(C)ccc1F)C2 [Example 429]
48	CCCN(C(=O)c1cccc2[nH]c(C)nc12)C1CC2(C1)CN(S(=O)(=O)c1cc(C)ccc1F)C2 [Example 430]
347	CCCN(C(=O)c1nc2ccccc2[nH]1)C1CC2(C1)CN(S(=O)(=O)c1cc(C)ccc1F)C2 [Example 431]
344	CC1CCCNC(=O)N1C1CC2(C1)CN(S(=O)(=O)c1ccccc1F)C2 (centres unmarked) [Example 432, 1-[2-(2-fluorophenyl)sulfonyl-2-azaspiro[3.3]heptan-6-yl]-7-methyl-1,3-diazepan-2-one]
868	CC1CCOC(=O)N1C1CC2(C1)CN(S(=O)(=O)c1ccccc1F)C2 (centres unmarked) [Example 433, 3-[2-(2-fluorophenyl)sulfonyl-2-azaspiro[3.3]heptan-6-yl]-4-methyl-1,3-oxazinan-2-one]
279	CC1CCNC(=O)N1C1CC2(C1)CN(S(=O)(=O)c1ccccc1F)C2 (centres unmarked) [Example 434, 1-[2-(2-fluorophenyl)sulfonyl-2-azaspiro[3.3]heptan-6-yl]-6-methyl-1,3-diazinan-2-one]
492	C[C@@H]1CNC(=O)N1C1CC2(C1)CN(S(=O)(=O)c1ccccc1F)C2 [Example 435, (5R)-1-[2-(2-fluorophenyl)sulfonyl-2-azaspiro[3.3]heptan-6-yl]-5-methylimidazolidin-2-one]
247	CC1CSCC(=O)N1C1CC2(C1)CN(S(=O)(=O)c1ccccc1F)C2 (centres unmarked) [Example 441, 4-[2-(2-fluorophenyl)sulfonyl-2-azaspiro[3.3]heptan-6-yl]-5-methylthiomorpholin-3-one]
551	C[C@@H]1CCNCC(=O)N1C1CC2(C1)CN(S(=O)(=O)c1ccccc1F)C2 [Example 442, (7R)-1-[2-(2-fluorophenyl)sulfonyl-2-azaspiro[3.3]heptan-6-yl]-7-methyl-1,4-diazepan-2-one]
157	C[C@@H]1CCN(CC2CC2)CC(=O)N1C1CC2(C1)CN(S(=O)(=O)c1ccccc1F)C2 [Example 443, (7R)-4-(cyclopropylmethyl)-1-[2-(2-fluorophenyl)sulfonyl-2-azaspiro[3.3]heptan-6-yl]-7-methyl-1,4-diazepan-2-one]
789	C[C@@H]1CCN(C)CC(=O)N1C1CC2(C1)CN(S(=O)(=O)c1ccccc1F)C2 [Example 444]
171	C[C@@H]1CCN(Cc2ccccc2)CC(=O)N1C1CC2(C1)CN(S(=O)(=O)c1ccccc1F)C2 [Example 446]
403	C[C@@H]1CCN(C2CCOCC2)CC(=O)N1C1CC2(C1)CN(S(=O)(=O)c1ccccc1F)C2 [Example 447]
474	C[C@@H]1CCN(CCC(F)(F)F)CC(=O)N1C1CC2(C1)CN(S(=O)(=O)c1ccccc1F)C2 [Example 448]
